These results are taken from patent US6156724A, “Uses of didemnins as immunomodulating agents” (priority 1998, dated 2000).

Like-named read-outs stand apart in the source and are kept apart here. Numbered stars: 1 amine (or outer) side, 2 acyl side, 3 side chain; on linkers, the order of the positions; unused ones are H or OH. Bridge positions count the residues as written; N and C are the ends. Square brackets hold non-standard residues; d marks the D form. Peptide text beside a SMILES is read from it. * marks the point of attachment. X1 = CC[C@H](C)[C@@H](N[*:1])[C@@H](O)CC(=O)O[C@H](C(=O)[C@H](C)C(=O)[*:2])C(C)C; NMeY = CN[C@@H](Cc1ccc(O)cc1)C(=O)O; dNMeL = CN[C@H](CC(C)C)C(=O)O; pGlu = O=C1CC[C@@H](C(=O)O)N1; Isobutyryl = CC(C)C(=O)*; Pyruvoyl = CC(=O)C(=O)*; Lac = C[C@H](O)C(=O)O; Propionyl = CCC(=O)*

In general, IC50 refers to the concentration that gives 50% inhibition.

Data set [1] has as its system Balb/c splenocytes (resting lymphocytes). As to the kind of experiment: Lymphocyte viability (LcV) assay. The data set is classed as cell-based, murine. The settings on record: unstimulated Balb/c splenocytes, MTT. The method, then: Forty two (42) didemnin compounds (see Table 1) were evaluated for cytotoxicity to one of the lymphocyte populations in the MLR (i.e., Balb/c splenocytes). The purpose of the lymphocyte viability assay (LcV) is to measure metabolic activity in lymphocytes after they have been exposed to the compounds for the duration of an under conditions equivalent to the MLR. The inverse of the data yields cytotoxicity information about the compounds on murine lymphocytes. The rationale of using resting cells, in this case unstimulated lymphocytes, to measure cytotoxicity has a strategic importance. In the MLR the heterogenous cell populations are predominantly resting cells when the assay begins.
Test compounds were prepared in two sets as described above. Splenocytes were prepared as described previously from one murine strain (Balb/c), and a volume of 200 μL of the cell suspension was added to one set of test compounds and control wells.
Assay plates were incubated as in the MLR and then pulsed overnight 75 μL per well MTT-thiazolyl blue solution (150 μg). The plates were decanted and the resulting insoluble formazan crystals were dissolved in 200 μL of isopropyl alcohol. Absorbance at 570 nm was measured.
The LcV data were calculated as a percentage of basal metabolic activity, or percent viability, relative to BALB/c control, and an LC50 value was interpolated for each test compound.

Data set [2] has as its system concanavalin A-induced lymphoblasts (Con A splenocytes). Nature of the data set: Lymphoblast viability (LbV) assay. The settings on record: Con A-stimulated splenocytes (lymphoblasts), MTT.
In data set [3] the test system is murine splenocytes (Balb/c and C57B1/6). As to the kind of experiment: Two-way mixed lymphocyte reaction (MLR) assay.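 Note: proliferation read as tritiated thymidine incorporation into newly made DNA after an overnight pulse, expressed as percent of control activity, IC50 interpolated per compound.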
[4] abbreviates: Balb/c + C57B1/6 splenocytes, 96 h, [3H]thymidine.
[5] abbreviates: read-out: two-way mixed lymphocyte reaction (MLR) suppression MLR, IC50, Balb/c + C57B1/6 splenocytes, 96 h, [3H]thymidine.

Consider `CC[C@H](C)[C@H]1NC(=O)[C@@H](NC(=O)[C@@H](CC(C)C)N(C)C(=O)[C@@H]2CCCN2)[C@@H](C)OC(=O)[C@H](Cc2ccc(OC)cc2)N(C)C(=O)[C@@H]2CCCN2C(=O)[C@H](CC(C)C)NC(=O)[C@@H](C)C(=O)[C@H](C(C)C)OC(=O)C[C@@H]1O` [Compound 28, N^α -(L-Pro)Didemnin A] (H-P[dNMeL]T[X1]LP[NMeY](Me); ester 3-C), for which the results for the “cytoxicity to lymphocytes LcV, LC50” value in data set [1] and in data set [1] (highest concentration 10 μg/mL) were over 9600 nM and over 10 µg/mL, respectively. The “cytotoxicity to lymphocytes LbV, LC50” value in data set [2] came to 5.1 nM. Moreover, the “two-way mixed lymphocyte reaction (MLR) suppression MLR, IC50” value (“two-way mixed lymphocyte reaction” for short) in data set [3] (setting [4]) is 1.00 ng/mL. For the same compound, in data set [3] (setting [5]), the concentration for half-maximal inhibition (IC50) is 0.96 nM.
For `CC[C@H](C)[C@H]1NC(=O)[C@@H](NC(=O)[C@@H](CC(C)C)N(C)C(=O)[C@H]2CCCN2)[C@@H](C)OC(=O)[C@H](Cc2ccc(OC)cc2)N(C)C(=O)[C@@H]2CCCN2C(=O)[C@H](CC(C)C)NC(=O)[C@@H](C)C(=O)[C@H](C(C)C)OC(=O)C[C@@H]1O` [Compound 29, N^α -(D-Pro)-Didemnin A] (H-[dP][dNMeL]T[X1]LP[NMeY](Me); ester 3-C) the same measures were over 9600 nM, over 10 µg/mL, 22 nM, 12.2 ng/mL and 11.7 nM.
Take `CC[C@H](C)[C@H]1NC(=O)[C@@H](NC(=O)[C@@H](CC(C)C)N(C)C(=O)[C@@H]2CCCN2C(=O)C(C)=O)[C@@H](C)OC(=O)[C@H](Cc2ccc(OC)cc2)N(C)C(=O)[C@@H]2CCCN2C(=O)[C@H](CC(C)C)NC(=O)[C@@H](C)C(=O)[C@H](C(C)C)OC(=O)C[C@@H]1O` [Compound 30, dehydrodidemnin B] (Pyruvoyl-P[dNMeL]T[X1]LP[NMeY](Me); ester 3-C): the figures for the “cytoxicity to lymphocytes LcV, LC50” value in data set [1] and in data set [1] (highest concentration 10 μg/mL) were 2600 nM and 2.90 µg/mL, respectively. Besides, the “cytotoxicity to lymphocytes LbV, LC50” value in data set [2] amounted to 0.079 nM. The “two-way mixed lymphocyte reaction” value in data set [3] (setting [4]) amounted to 0.43 ng/mL. Moreover, the IC50 in data set [3] (setting [5]) is 0.38 nM.
Consider `CC[C@H](C)[C@H]1NC(=O)[C@@H](NC(=O)[C@@H](CC(C)C)N(C)C(=O)[C@@H]2CCCN2C(C)=O)[C@@H](C)OC(=O)[C@H](Cc2ccc(OC)cc2)N(C)C(=O)[C@@H]2CCCN2C(=O)[C@H](CC(C)C)NC(=O)[C@@H](C)C(=O)[C@H](C(C)C)OC(=O)C[C@@H]1O` [Compound 31, [Acetyl^9]Didemnin B] (Ac-P[dNMeL]T[X1]LP[NMeY](Me); ester 3-C), for which the “cytoxicity to lymphocytes LcV, LC50” value in data set [1] amounted to 2800 nM; in data set [1] (highest concentration 10 μg/mL), 3.10 µg/mL. Besides, the “cytotoxicity to lymphocytes LbV, LC50” value in data set [2] was 0.16 nM. In addition, the “two-way mixed lymphocyte reaction” value in data set [3] (setting [4]) was determined as 0.22 ng/mL. For the same compound, in data set [3] (setting [5]), the IC50 is 0.21 nM.
For `CCC(=O)N1CCC[C@H]1C(=O)N(C)[C@H](CC(C)C)C(=O)N[C@@H]1C(=O)N[C@H]([C@@H](C)CC)[C@@H](O)CC(=O)O[C@@H](C(C)C)C(=O)[C@H](C)C(=O)N[C@@H](CC(C)C)C(=O)N2CCC[C@H]2C(=O)N(C)[C@@H](Cc2ccc(OC)cc2)C(=O)O[C@@H]1C` [Compound 32, [Propionyl^9]Didemnin B] (Propionyl-P[dNMeL]T[X1]LP[NMeY](Me); ester 3-C) the same measures were 1980 nM, 2.20 µg/mL, 0.184 nM, 0.26 ng/mL and 0.23 nM.
As for `CC[C@H](C)[C@H]1NC(=O)[C@@H](NC(=O)[C@@H](CC(C)C)N(C)C(=O)[C@@H]2CCCN2C(=O)C(C)C)[C@@H](C)OC(=O)[C@H](Cc2ccc(OC)cc2)N(C)C(=O)[C@@H]2CCCN2C(=O)[C@H](CC(C)C)NC(=O)[C@@H](C)C(=O)[C@H](C(C)C)OC(=O)C[C@@H]1O` [Compound 33, [Isobutyryl^9]Didemnin B] (Isobutyryl-P[dNMeL]T[X1]LP[NMeY](Me); ester 3-C), the “cytoxicity to lymphocytes LcV, LC50” value in data set [1] came to 2240 nM; in data set [1] (highest concentration 10 μg/mL), 2.40 µg/mL. For the same compound, in data set [2], the “cytotoxicity to lymphocytes LbV, LC50” value turned out to be 0.204 nM. Besides, the “two-way mixed lymphocyte reaction” value in data set [3] (setting [4]) is recorded as 0.041 ng/mL. The IC50 in data set [3] (setting [5]) came to 0.037 nM.
For `CC[C@H](C)[C@H]1NC(=O)[C@@H](NC(=O)[C@@H](CC(C)C)N(C)C(=O)[C@H]2CCCN2C(=O)C(C)C)[C@@H](C)OC(=O)[C@H](Cc2ccc(OC)cc2)N(C)C(=O)[C@@H]2CCCN2C(=O)[C@H](CC(C)C)NC(=O)[C@@H](C)C(=O)[C@H](C(C)C)OC(=O)C[C@@H]1O` [Compound 34, [Isobutyryl^9, D-Pro^8] Didemnin B] (Isobutyryl-[dP][dNMeL]T[X1]LP[NMeY](Me); ester 3-C), the results for the “cytoxicity to lymphocytes LcV, LC50” value in data set [1] and in data set [1] (highest concentration 10 μg/mL) were 5600 nM and 6.20 µg/mL, respectively. Besides, in data set [2], the “cytotoxicity to lymphocytes LbV, LC50” value turned out to be 4.81 nM. In addition, the “two-way mixed lymphocyte reaction” value in data set [3] (setting [4]) was 0.67 ng/mL. Also, in data set [3] (setting [5]), the IC50 stood at 0.6 nM.
Take `CC[C@H](C)[C@H]1NC(=O)[C@@H](NC(=O)[C@@H](CC(C)C)N(C)C(=O)[C@H](C)NC(=O)[C@H](C)O)[C@@H](C)OC(=O)[C@H](Cc2ccc(OC)cc2)N(C)C(=O)[C@@H]2CCCN2C(=O)[C@H](CC(C)C)NC(=O)[C@@H](C)C(=O)[C@H](C(C)C)OC(=O)C[C@@H]1O` [Compound 35, [L-Ala^8]Didemnin B]: the “cytoxicity to lymphocytes LcV, LC50” value in data set [1] was over 9200 nM; in data set [1] (highest concentration 10 μg/mL), over 10 µg/mL. Moreover, in data set [2], the “cytotoxicity to lymphocytes LbV, LC50” value worked out at 0.717 nM. The “two-way mixed lymphocyte reaction” value in data set [3] (setting [4]) was determined as 0.33 ng/mL. The IC50 in data set [3] (setting [5]) amounted to 0.31 nM.
On to `CC[C@H](C)[C@H]1NC(=O)[C@@H](NC(=O)[C@@H](CC(C)C)N(C)C(=O)[C@@H]2CCCN2C(=O)[C@H](C)OC(=O)[C@H](CCC(N)=O)NC(=O)[C@H](CCC(N)=O)NC(=O)[C@@H]2CCC(=O)N2)[C@@H](C)OC(=O)[C@H](Cc2ccc(OC)cc2)N(C)C(=O)[C@@H]2CCCN2C(=O)[C@H](CC(C)C)NC(=O)[C@@H](C)C(=O)[C@H](C(C)C)OC(=O)C[C@@H]1O` [Compound 39, Didemnin E] ([pGlu]QQ[Lac]P[dNMeL]T[X1]LP[NMeY](Me); ester 7-C), for which the “cytoxicity to lymphocytes LcV, LC50” value in data set [1] is over 6770 nM; in data set [1] (highest concentration 10 μg/mL) it was over 10 µg/mL. The “cytotoxicity to lymphocytes LbV, LC50” value in data set [2] was found to be 1.4 nM. Moreover, in data set [3] (setting [4]), the “two-way mixed lymphocyte reaction” value stood at 0.012 ng/mL. Also, the concentration for half-maximal inhibition (IC50) in data set [3] (read-out: MLR IC50) and in data set [3] (setting [5]) was 0.0084 nM in each case.
As for `CC[C@H](C)[C@H]1NC(=O)[C@@H](NC(=O)[C@@H](CC(C)C)N(C)C(=O)[C@@H]2CCCN2C(=O)[C@H](C)OC(=O)[C@H](CCC(N)=O)NC(=O)[C@H](CCC(N)=O)NC(=O)[C@H](CCC(N)=O)NC(=O)[C@@H]2CCC(=O)N2)[C@@H](C)OC(=O)[C@H](Cc2ccc(OC)cc2)N(C)C(=O)[C@@H]2CCCN2C(=O)[C@H](CC(C)C)NC(=O)[C@@H](C)C(=O)[C@H](C(C)C)OC(=O)C[C@@H]1O` [Compound 40, Didemnin D] ([pGlu]QQQ[Lac]P[dNMeL]T[X1]LP[NMeY](Me); ester 8-C), the “cytoxicity to lymphocytes LcV, LC50” value is over 6220 nM in data set [1] and over 10 µg/mL in data set [1] (highest concentration 10 μg/mL). Also, the “cytotoxicity to lymphocytes LbV, LC50” value in data set [2] is 0.85 nM. In addition, the “two-way mixed lymphocyte reaction” value in data set [3] (setting [4]) worked out at 0.20 ng/mL. The IC50 in data set [3] (setting [5]) was 0.12 nM.
For Didemnin X [Compound 41], the “cytoxicity to lymphocytes LcV, LC50” value in data set [1] was 6010 nM; in data set [1] (highest concentration 10 μg/mL), 10.0 µg/mL. Further, in data set [2], the “cytotoxicity to lymphocytes LbV, LC50” value was found to be 3.1 nM. Further, the “two-way mixed lymphocyte reaction” value in data set [3] (setting [4]) came out at 0.83 ng/mL. For the same compound, the IC50 in data set [3] (setting [5]) turned out to be 0.5 nM.
Consider Didemnin Y [Compound 42], for which the “cytoxicity to lymphocytes LcV, LC50” value in data set [1] was over 5570 nM; in data set [1] (highest concentration 10 μg/mL), over 10 µg/mL. Moreover, the “cytotoxicity to lymphocytes LbV, LC50” value in data set [2] is 1.1 nM. Also, the “two-way mixed lymphocyte reaction” value in data set [3] (setting [4]) stood at 0.89 ng/mL. In data set [3] (setting [5]), the IC50 amounted to 0.5 nM.
For “[Anhydro1st^2 ][Phth-Ala^9 ]DB [Compound 9]” the same measures were over 8200 nM, over 10 µg/mL, 1.9 nM, 0.30 ng/mL and 0.25 nM.
For [Phth-Ala^9 ]DB [Compound 8] the same measures were over 8100 nM, over 10 µg/mL, 0.81 nM, 0.49 ng/mL and 0.39 nM.
